Measured values: BindingDB's records for doi:10.1016/s0960-894x(99)00243-7 (Eisai Research Institute, 1999)
Where “and” joins values, the source holds several entries; their conditions need not be identical. Equal values may be shown once.

Tests used:
[1] = Evaluated for cytotoxicity using P388/VMDRC.04 cells (a subline of P388 murine leukemia cells expressing human recombinant human P-glycoprotein) in the absence of 10 nM vincristine
[2] = as above; remark: listed apart in the source
[3] = Multidrug-resistant reversal activity using P388/VMDRC.04 cells (a subline of P388 murine leukemia cells expressing human recombinant human P-glycoprotein) in the presence of 10 nM vincristine

Structure (SMILES)	IC50 [3]	IC50 [1] [µM]	IC50 [2] [µM]
CCCCCCC[C@@H]1CC(=O)O[C@@H](C(C)C)C(=O)N(C)[C@@H](Cc2ccccc2)[C@H](OCOC)CC(=O)O1		34.4	6
CC(C)[C@@H]1OC(=O)[C@@H](C)[C@@H](C)OC(=O)C[C@@H](O)[C@H](Cc2ccccc2)N(C)C1=O		> 100	15
CCCCCCC[C@H]1OC(=O)CC[C@H](Cc2ccccc2)N(C)C(=O)[C@H](C(C)C)OC(=O)[C@H]1C		33.7	6
CC(C)[C@@H]1OC(=O)[C@@H](C)COC(=O)C[C@@H](O)[C@H](Cc2ccccc2)N(C)C1=O			21.9
CCCCCCC[C@@H]1CC(=O)O[C@@H](C(C)C)C(=O)N(C)[C@@H](Cc2ccccc2)[C@H](O)CC(=O)O1		24	6.2
C[C@@H]1C(=O)OCC(=O)N(C)[C@@H](Cc2ccccc2)[C@@H](O)CC(=O)O[C@@H]1C	> 100 µM	> 100	
CCCCCCC[C@@H](O)[C@H](C)C(=O)O[C@H](C(=O)OC)C(C)C	16 µM	> 83	
COCO[C@@H]1CC(=O)O[C@H](C)[C@H](C)C(=O)O[C@@H](C(C)C)C(=O)N(C)[C@H]1Cc1ccccc1		> 75	7.5
CCCCCCC[C@H]1OC(=O)C[C@@H](OCOC)[C@H](Cc2ccccc2)N(C)C(=O)[C@H](C(C)C)OC(=O)[C@H]1C			6.1
COCO[C@@H]1CC(=O)OC[C@H](C)C(=O)O[C@@H](C(C)C)C(=O)N(C)[C@H]1Cc1ccccc1		> 100	10.4
CCCC[C@H]1OC(=O)C[C@H](OCOC)[C@H](Cc2ccccc2)N(C)C(=O)COC(=O)[C@H]1C			11.7
COC(=O)C[C@@H](O)[C@H](Cc1ccccc1)N(C)C(=O)OCc1ccccc1		> 89	17.1
CCCCCCC[C@H]1OC(=O)C[C@@H](O)[C@H](Cc2ccccc2)N(C)C(=O)COC(=O)[C@H]1C		22.5	5.8
COCO[C@H](CC(=O)OC)[C@H](Cc1ccccc1)N(C)C(=O)OCc1ccccc1	14.9 µM	> 86	
CCCCCCC[C@H]1OC(=O)C[C@@H](OCOC)[C@H](Cc2ccccc2)N(C)C(=O)COC(=O)[C@H]1C		15.1	2.3

The next lines start with results.

IC50 [3]	Structure (SMILES)	IC50 [1] [µM]	IC50 [2] [µM]
5.9 µM	CCCCCCC[C@H]1OC(=O)C[C@@H](OCOC)[C@H](Cc2ccccc2)N(C)C(=O)[C@H](C)OC(=O)[C@H]1C	19.3	
5.6 µM	CCCCCCC[C@H]1OC(=O)C[C@H](OCOC)[C@H](Cc2ccccc2)N(C)C(=O)C(C)(C)OC(=O)[C@H]1C	20	
5.7 µM	CCCCCCC[C@H]1OC(=O)C[C@H](O)[C@H](Cc2ccccc2)N(C)C(=O)[C@H](C(C)C)OC(=O)[C@H]1C	42.2	
42.7 µM	COCO[C@H]1CC(=O)O[C@H](C)[C@H](C)C(=O)OCC(=O)N(C)[C@H]1Cc1ccccc1	> 100	
5.5 µM and 5.4 µM	CCCCCCC[C@H]1OC(=O)C[C@H](OCOC)[C@H](Cc2ccccc2)N(C)C(=O)[C@H](C(C)C)OC(=O)[C@H]1C	41.5	
4.8 µM	CCCCCCC[C@H]1OC(=O)C[C@@H](O)[C@H](Cc2ccccc2)N(C)C(=O)[C@H](C(C)C)OC(=O)[C@H]1C [HAPALOSIN]	14.8	
18.1 µM	CCCC[C@H]1OC(=O)C[C@H](O)[C@H](Cc2ccccc2)N(C)C(=O)COC(=O)[C@H]1C	> 80	
6.2 µM	CCCCCCC[C@H]1OC(=O)C[C@@H](O)[C@H](Cc2ccccc2)N(C)C(=O)[C@H](C)OC(=O)[C@H]1C	27.1	
4.3 µM	CCCCCCC[C@H]1OC(=O)C[C@H](O)[C@H](Cc2ccccc2)N(C)C(=O)C(C)(C)OC(=O)[C@H]1C	28.4	
